The results in this text go back to paper PMC7801115, “Preclinical in vitro screening of newly synthesised amidino substituted benzimidazoles and benzothiazoles” (Journal of Enzyme Inhibition and Medicinal Chemistry, 2021).

Molecules are shown by their SMILES.

One data set relates to A549. Kind of data set: BrdU proliferation assay, 3D cell culture. Format: cell-based. Conditions: Homo sapiens, A549, 3D cell culture, ±SD, N = 2. The protocol: (§1) Cells were grown in 96 well Perfecta 3 D hanging drop plates 5000 cell/well for 4 days until spheres were formed (and checked under the microscope). After sphere formation cells were treated with compounds followed by 72 h incubation. Cell viability assay was performed according to the manufacturer’s instruction, using CellTiter GLO 3 D for 3 D cell culture (Promega); cell incubation was 5 min on the shaker followed by 25 min incubation in the dark. Plates were read using PE EnVision luminescence. The results for each of tested compounds are reported as growth percentages from two independent concentrations curves compared with the untreated control cells after drug exposure.
(§2) Proliferation assay was performed using Cell Proliferation ELISA, BrdU (Sigma, St. Louis, MO, USA). Briefly, 48 h hours after compound addition, 10 µM of BrdU was added to each well and incubated for following 24 h. After incubation, single cell suspension was made for 3 D cell culture in the new 96 well plate. Plates were centrifuged and supernatants were removed from each plate (for 2 D and 3 D cell culture) followed by 60 min incubation at 60° C. The rest of the proliferation assay was performed according to the manufacturer instructions.
(§3) Calculation of IC50 data, curves and QC analysis is made by using Excel tools and GraphPadPrism software (La Jolla, CA), v. 5.03. In brief, individual concentration–effect curves are generated by plotting the logarithm of the tested concentration of tested compounds (X) versus corresponding percent inhibition values (Y) using least squares (ordinary) fit. […] QC criteria parameters (Z', S:B, R2, HillSlope) were checked for every IC50 curve.

The subject of another data set is NCI-H358. The data set is described as follows: BrdU proliferation assay, 3D cell culture. Format: cell-based. Particulars: Homo sapiens, NCI-H358, 3D cell culture, ±SD, N = 2. The protocol:
as §1, §2, §3

For another data set, the system named is MDCKII-hMDR1 cells. The data set is described as follows: MDCKII-MDR1 permeability and P-glycoprotein substrate assay. Format: in vitro ADME, canine cells over-expressing human MDR1. Conditions: without P-gp inhibitor. The protocol: Permeability and P-glycoprotein substrate assessment was done on MDCKII-hMDR1, Madin-Darby canine epithelial cells over-expressing human MDR1 gene, coding for P-glycoprotein.
Cells were prepared for transport studies by seeding on 96-well cell culture inserts (Millipore, MA, USA) in a concentration of 0.25 × 10^6 cells per ml. The cells were fed with fresh medium 24 h post seeding and cultured to confluence for 3 days before use. On the day of experiment, the cell monolayers were washed and equilibrated with transport medium (DPBS, pH 7.4 containing 1% DMSO) with or without P-gp specific inhibitor, elacridar (2 µM) for 45 min (37 °C, 5% CO2, 95% humidity). Test compound solution consisted of test substance (10 μM) in D-PBS medium containing lucifer yellow (100 μM) and 1% DMSO. Transport assays were conducted in apical to basolateral (A2B) and basolateral to apical (B2A) directions, respectively. Monolayers were incubated with the compound solution for 60 min at 37 °C under gentle agitation. Apical and basolateral compartments were sampled at the end of the transport experiment, while donor solutions were also sampled at the beginning of the experiment in order to determine initial concentration. Test substance concentrations in both compartments were determined by LC-MS/MS. There were several controls used in the assay: 1) amprenavir (0.5 μM) served as a low permeable control, being also a P-gp substrate; 2) diclofenac (10 μM) was used as a high permeable control; 3) Lucifer yellow, a fluorescent marker for the paracellular membrane transport, was used as a control of cell monolayer integrity.
All ADME samples were analysed on a Sciex API 4000 or Sciex API4500 Triple Quadrupole Mass Spectrometer (Sciex, Framingham, MA, USA) coupled to a UHPLC System (Shimadzu Nexera X2; Shimadzu, Kyoto, Japan). Samples were injected onto an UPLC column (HALO2 C18, 2.1 × 20 mm, 2 µm or Phenomenex Luna Omega Polar C18, 30 × 2.1 mm, 1.6 µm) and eluted with a gradient at temperature of 50 °C. The mobile phase was composed of acetonitrile (with 0.1% formic acid) and 0.1% formic acid in deionised water. A total run time was 1 or 1.5 min, with the flow rate of 0.7 ml/min (under gradient conditions). A positive ion mode with turbo spray, an ion source temperature of 500 °C and a dwell time of 150 ms were utilised for mass spectrometric detection. Multiple reaction monitoring (MRM) was used at the specific transitions for each compound/control tested: compound 5c: 361.9 → 304.9; compound 5d: 344.8 → 287.9; compound 5e: 349.8 → 292.9; compound 5 g: 350.8 → 293.9; compound 5 h: 344.0 → 286.9; compound 6a: 276.9 → 220.0; compound 5 b: 319.0 → 262.0; compound 6 b: 302.1 → 245.1; compound 6c: 344.9 → 288.0; compound 6d: 333.0 → 276.0; compound 6e: 316.1 → 259.0; compound 6f: 327.1 → 270.0; compound 6 g: 377.1 → 320.1; testosterone: 289.3→ 97.1; propranolol: 260.1 → 182.8; caffeine: 195.2 → 138.1; acebutolol: 337.2 → 116.2, nicardipine: 480.2 → 315.0; verapamil: 455.4 → 165.1; amprenavir: 506.2 → 245.4; diclofenac: 296.1 → 213.7 or 296.2 → 215.3; eucatropine: 292.2 → 109.1; benfluorex: 352.1 → 230.3, and warfarin: 309.2 → 163.2

`Cl.N#Cc1ccc(-c2nc3ccc(C4=NCCCN4)cc3s2)cc1` [Compound 5b, 2–(4-Cyanophenyl)-6–(3,4,5,6-tetrahydropyrimidin-1-ium-2-yl)benzothiazole chloride] had a melting point greater than 300 °C. In the data set on A549, this compound gave an IC50 of 87 ± 0.11 µM. Besides, the IC50 with NCI-H358 was greater than 100 µM.

Take `Cl.FC(F)(F)c1ccc(-c2nc3ccc(C4=NCCCN4)cc3s2)cc1` [Compound 5c, 2–(4-Trifluoromethylphenyl)-6–(3,4,5,6-tetrahydropyrimidin-1-ium-2-yl)benzothiazole chloride]: the melting point fell in the range of 279 to 283 °C. Also, half-maximal inhibition in the data set on A549 (IC50) required 13 ± 0.78 µM. Also, the IC50 in the data set with NCI-H358 was 4.31 µM.

`Cl.c1ccc2nc(-c3nc4ccc(C5=NCCCN5)cc4s3)ccc2c1` [Compound 5d, 2-(Quinoline-2-yl)-6–(3,4,5,6-tetrahydropyrimidin-1-ium-2-yl)benzothiazole chloride] displayed a melting point greater than 300 °C. 16 ± 1.3 µM corresponded to half-maximal inhibition in the data set with A549 (IC50). Also, in the data set with NCI-H358, the IC50 turned out to be 13 ± 1.65 µM.

For the compound `Cl.c1ccc2sc(-c3nc4ccc(C5=NCCCN5)cc4s3)cc2c1` [Compound 5e, 2-(Benzo[b]thiophen-2-yl)-6–(3,4,5,6-tetrahydropyrimidin-1-ium-2-yl)benzothiazole chloride], the melting point is greater than 300 °C. In the data set on A549, this compound came in with an IC50 of 23 ± 6.24 µM. The compound further gave an IC50 with NCI-H358 of 5 ± 0.81 µM.

On to `Cl.c1ccc2sc(-c3nc4ccc(C5=NCCCN5)cc4s3)nc2c1` [Compound 5g, 2-(Benzothiazole-2-yl)-6–(3,4,5,6-tetrahydropyrimidin-1-ium-2-yl)benzothiazole chloride], for which the melting point is greater than 300 °C. For the same compound, in the data set on A549, the midpoint of inhibition, the IC50, lay at 14 ± 3.07 µM. The same compound came in with an IC50 in the data set on NCI-H358 of 7 ± 2.33 µM.

Regarding `Cl.c1ccc2cc(-c3nc4ccc(C5=NCCCN5)cc4s3)ccc2c1` [Compound 5h, 2-(Naphthalene-2-yl)-6–(3,4,5,6-tetrahydropyrimidin-1-ium-2-yl)benzothiazole chloride], the melting point is greater than 300 °C. In the data set with A549, this compound showed an IC50 of 14 ± 0.06 µM. Further, the midpoint of inhibition in the data set with NCI-H358, the IC50, lay at 1 ± 0.81 µM.

In the case of `c1ccc(-c2nc3cc(C4=NCCCN4)ccc3[nH]2)cc1` [Compound 6a, 2-Phenyl-5(6)–(3,4,5,6-tetrahydropyrimidin-1-ium-2-yl)benzimidazole chloride], the IC50 is 12 ± 0.28 µM with A549 and 3 ± 1.41 µM with NCI-H358.

With `N#Cc1ccc(-c2nc3cc(C4=NCCCN4)ccc3[nH]2)cc1` [Compound 6b, 2–(4-Cyanophenyl)-5(6)–(3,4,5,6-tetrahydropyrimidin-1-ium-2-yl)benzimidazole chloride], the IC50 in the data set with A549 and in the data set on NCI-H358 was greater than 100 µM throughout. Also, the “MDCKII-MDR1 Efflux ratio” value in the data set on MDCKII-hMDR1 cells came to 1.13.

As for `FC(F)(F)c1ccc(-c2nc3cc(C4=NCCCN4)ccc3[nH]2)cc1` [Compound 6c, 2–(4-Trifluoromethylphenyl)-5(6)–(3,4,5,6-tetrahydropyrimidin-1-ium-2-yl)benzimidazole chloride], the IC50 in the data set on A549 and in the data set on NCI-H358 was greater than 100 µM throughout.

On to `c1ccc2sc(-c3nc4cc(C5=NCCCN5)ccc4[nH]3)cc2c1` [Compound 6d, 2-(Benzo[b]thiophen-2-yl)-5(6)–(3,4,5,6-tetrahydropyrimidin-1-ium-2-yl)benzimidazole chloride], for which the IC50 in the data set with A549 and in the data set with NCI-H358 was greater than 100 µM throughout.

Turning to `c1ccc2c(-c3nc4ccc(C5=NCCCN5)cc4[nH]3)c[nH]c2c1` [Compound 6e, 2-(1H-Indol-3-yl)-5(6)–(3,4,5,6-tetrahydropyrimidin-1-ium-2-yl)benzimidazole chloride], the IC50 in the data set with A549 and in the data set with NCI-H358 was greater than 100 µM each time.

`c1ccc2cc(-c3nc4cc(C5=NCCCN5)ccc4[nH]3)ccc2c1` [Compound 6f, 2-(Naphthalene-2-yl)-5(6)–(3,4,5,6-tetrahydropyrimidin-1-ium-2-yl)benzimidazole chloride]: the IC50 with A549 and in the data set with NCI-H358 was greater than 100 µM in each case.

With `c1ccc2c(c1)cc(-c1nc3cc(C4=NCCCN4)ccc3[nH]1)c1ccccc12` [Compound 6g, 2-(Phenanthrene-9-yl)-5(6)–(3,4,5,6-tetrahydropyrimidin-1-ium-2-yl)benzimidazole chloride], the IC50 with A549 and in the data set on NCI-H358 was greater than 100 µM throughout.
